Values after ≈ are worked out from the molar mass of the structure shown.
Tests used:
[1] = tested on: Mycolicibacterium smegmatis; experiment: Antitubercular activity against dormant Mycobacterium smegmatis MC2 155 at 3 ug after 12 days by XTT-Menadione assay; assay type: functional, str. MC2 155
Bacillus subtilis [2] = experiment: Antibacterial activity against Bacillus subtilis at 10 ug after 12 hrs; assay type: functional
[3] = Cytotoxicity against human THP1 cells after 5 days by MTT assay; assay type: cell-based, THP-1; conditions: for IC50: Homo sapiens, THP-1, 120 h; for MCC at 120 h: human, THP1 cells, read-out: MIC
Pseudomonas fluorescens [4] = experiment: Antibacterial activity against Pseudomonas fluorescens at 10 ug after 8 hrs; assay type: functional
Bacillus subtilis [5] = experiment: Antibacterial activity against Bacillus subtilis at 3 ug after 12 hrs; assay type: functional
Pseudomonas fluorescens [6] = experiment: Antibacterial activity against Pseudomonas fluorescens at 30 ug after 8 hrs; assay type: functional
Escherichia coli [7] = experiment: Antibacterial activity against Escherichia coli at 3 ug after 8 hrs; assay type: functional
[8] = Cytotoxicity against human PANC1 cells after 5 days by MTT assay; assay type: cell-based, PANC-1; conditions: for IC50: Homo sapiens, PANC-1, 120 h; for MCC at 120 h: human, PANC1 cells, read-out: MIC
[9] = tested on: Mycolicibacterium smegmatis; experiment: Antitubercular activity against dormant Mycobacterium smegmatis MC2 155 at 30 ug after 12 days by XTT-Menadione assay; assay type: functional, str. MC2 155
Bacillus subtilis [10] = experiment: Antibacterial activity against Bacillus subtilis at 30 ug after 12 hrs; assay type: functional
Escherichia coli [11] = experiment: Antibacterial activity against Escherichia coli at 10 ug after 8 hrs; assay type: functional
[12] = tested on: Mycolicibacterium smegmatis; experiment: Antitubercular activity against dormant Mycobacterium smegmatis MC2 155 at 10 ug after 12 days by XTT-Menadione assay; assay type: functional, str. MC2 155
[13] = tested on: Mycobacterium tuberculosis; experiment: Antitubercular activity against dormant Mycobacterium tuberculosis H37Ra at 30 ug after 12 days by XTT-Menadione assay; assay type: functional
[14] = (§1) Cytotoxicity against human A549 cells after 3 days by MTT assay; assay type: cell-based; conditions: human, A549 cells; read-out: MIC
A549 = experiment: as §1; assay type: cell-based; conditions: Homo sapiens, A549, 72 h
Staphylococcus aureus [15] = experiment: Antibacterial activity against Staphylococcus aureus at 10 ug after 12 hrs; assay type: functional
Pseudomonas fluorescens [16] = experiment: Antibacterial activity against Pseudomonas fluorescens at 3 ug after 8 hrs; assay type: functional
[17] = tested on: Mycobacterium tuberculosis; experiment: Antitubercular activity against dormant Mycobacterium tuberculosis H37Ra at 10 ug after 12 days by XTT-Menadione assay; assay type: functional
Staphylococcus aureus [18] = experiment: Antibacterial activity against Staphylococcus aureus at 30 ug after 12 hrs; assay type: functional
[19] = tested on: Mycobacterium tuberculosis; experiment: Antitubercular activity against dormant Mycobacterium tuberculosis H37Ra after 12 days by XTT-Menadione assay; assay type: functional, organism-based; conditions: 288 h
Escherichia coli [20] = experiment: Antibacterial activity against Escherichia coli at 30 ug after 8 hrs; assay type: functional
[21] = (§2) Cytotoxicity against human MCF7 cells after 4 days by MTT assay; assay type: cell-based; conditions: human, MCF7 cells; read-out: MIC
MCF7 = experiment: as §2; assay type: cell-based; conditions: Homo sapiens, MCF7, 96 h
[22] = tested on: Mycobacterium tuberculosis; experiment: Antitubercular activity against dormant Mycobacterium tuberculosis H37Ra at 3 ug after 12 days by XTT-Menadione assay; assay type: functional
Staphylococcus aureus [23] = experiment: Antibacterial activity against Staphylococcus aureus at 3 ug after 12 hrs; assay type: functional

| SMILES | inhibition (INH) [1] | inhibition (INH) (Bacillus subtilis [2]) | IC50 [3] | MCC at 120 h [3] | inhibition (INH) (Pseudomonas fluorescens [4]) | inhibition (INH) (Bacillus subtilis [5]) | inhibition (INH) (Pseudomonas fluorescens [6]) | inhibition (INH) (Escherichia coli [7]) | IC50 [8] | MCC at 120 h [8] | inhibition (INH) [9] | inhibition (INH) (Bacillus subtilis [10]) | inhibition (INH) (Escherichia coli [11]) | inhibition (INH) [12] | inhibition (INH) [13] | MCC at 72 h [14] | IC50 (A549) | inhibition (INH) (Staphylococcus aureus [15]) | inhibition (INH) (Pseudomonas fluorescens [16]) | inhibition (INH) [17] | also measured |
| --- | --- | --- | --- | --- | --- | --- | --- | --- | --- | --- | --- | --- | --- | --- | --- | --- | --- | --- | --- | --- | --- |
| O=C(NN1C(=O)CS[C@@H]1c1ccc([N+](=O)[O-])cc1)c1cnccn1 | 36.09% | -4.94% | 97.7 µg/mL (≈ 283 µM) | > 100 µg/mL | 13.35% | 16.03% | -21.38% | -6.69% | > 100 µg/mL | > 100 µg/mL | 9.803% | 8.09% | 14.12% | -31.0588% | 90.93% | > 100 µg/mL | > 100 µg/mL | -1.75% | 6.405% | 66.45% | inhibition (INH) (Staphylococcus aureus [18]): -24.9%; IC50 [19]: 1.47 µg/mL (≈ 4.25 µM); MIC [19]: 29 µg/mL (≈ 84 µM); inhibition (INH) (Escherichia coli [20]): 9%; MCC at 96 h [21]: > 100 µg/mL; IC50 (MCF7): 65.6 µg/mL (≈ 190 µM); inhibition (INH) [22]: 60.59%; inhibition (INH) (Staphylococcus aureus [23]): 21.93% |
| COc1cc([C@@H]2SCC(=O)N2NC(=O)c2cnc(C)cn2)ccc1O | -19.102% | 8.59% | 86.9 µg/mL (≈ 241 µM) | > 100 µg/mL | 33.16% | 14.34% | 47.41% | 33.04% | > 100 µg/mL | > 100 µg/mL | -19.0256% | 19.67% | -54.14% | 33.4% | 91.2% | > 100 µg/mL | 62.3 µg/mL (≈ 173 µM) | 23.58% | -2.64% | 70.7% | inhibition (INH) (Staphylococcus aureus [18]): -0.17%; IC50 [19]: 0.997 µg/mL (≈ 2.77 µM); MIC [19]: 27.9 µg/mL (≈ 77.3 µM); inhibition (INH) (Escherichia coli [20]): -53.27%; MCC at 96 h [21]: > 100 µg/mL; IC50 (MCF7): 70.2 µg/mL (≈ 195 µM); inhibition (INH) [22]: 66.03%; inhibition (INH) (Staphylococcus aureus [23]): 42.47% |
